Square brackets hold non-standard residues; d marks the D form. Ends that are not written are not given here. Peptide text beside a SMILES is read from it.

The first series deals with Aedes aegypti larvae. In words: Effect of TMOF and its analogue peptides on mosquito larvae (feeding, LD50). The format is in vivo. To be noted: newly hatched larvae on autoclaved yeast 1 mg/ml, microtiter plates, 7 days. From the text:
TMOF can traverse the gut epithelium, enter the hemolymph and bind a gut receptor (Borovsky, D. and F. Mahmood (1995) “Feeding the mosquito Aedes aegypti with TMOF and its analogs; effect on trypsin biosynthesis and egg development,” Regulatory Peptides57:273-281; Borovsky, et al. (1994) “Characterization and localization of mosquito-gut receptors for trypsin modulating oostatic factor using complementary peptide immunochemistry” FASEB J. 8:350-355.). […] To find out if truncated TMOF peptides have an effect on larval growth and development, a series of peptides were synthesized and tested by feeding them to mosquito larvae at concentrations of 0 to 5.0 mg/ml (Table 3). Individual, newly hatched Aedes aegypti larvae were maintained in separate microtiter wells on a diet of autoclaved yeast (1 mg/ml). The diet was supplemented with TMOF peptides (Table 3). An identical number of larvae maintained on yeast served as a control. […] All control groups survived and larval growth and development was normal. Since larvae swallow only a small portion of the yeast particles that adsorbed the peptides, it is assumed that approximately 1 to 20 ng are taken orally at the high concentrations.
As for `C[C@H](NC(=O)[C@@H]1CCCN1C(=O)[C@H](CC(=O)O)NC(=O)[C@H](N)Cc1ccc(O)cc1)C(=O)N1CCC[C@H]1C(=O)O` [(D)YDPAP] (H-[dY]DPAP-OH; N-terminus and C-terminus assumed), the “LD50 mM ± S.E.M.” value is 0.56 ± 0.03 mM. Regarding `N[C@H](Cc1ccc(O)cc1)C(=O)N[C@@H](CC(=O)O)C(=O)N1CCC[C@H]1C(=O)O` [(D)YDP] (H-[dY]-Asp-Pro-OH; N-terminus and C-terminus assumed), the “LD50 mM ± S.E.M.” value worked out at 0.51 ± 0.05 mM. Turning to `C[C@H](N)C(=O)N[C@@H](C)C(=O)N1CCC[C@H]1C(=O)O` [AAP] (H-Ala-Ala-Pro-OH; N-terminus and C-terminus assumed), the “LD50 mM ± S.E.M.” value is listed as 1.08 ± 0.07 mM. Take `C[C@H](N)C(=O)N[C@@H](CC(=O)O)C(=O)N1CCC[C@H]1C(=O)O` [ADP] (H-Ala-Asp-Pro-OH; N-terminus and C-terminus assumed): the “LD50 mM ± S.E.M.” value is on record as >6.6 mM. Same read-out and setting: under `C[C@H](N)C(=O)N1CCC[C@H]1C(=O)N[C@@H](C)C(=O)O` [APA] (H-Ala-Pro-Ala-OH; N-terminus and C-terminus assumed) stands 1.0 ± 0.07 mM; under `C[C@H](NC(=O)[C@H](C)NC(=O)[C@@H](N)CC(=O)O)C(=O)O` [DAA] (H-Asp-Ala-Ala-OH; N-terminus and C-terminus assumed), 0.91 ± 0.06 mM. The same measure, in the same setting: the result for `C[C@H](NC(=O)[C@@H]1CCCN1C(=O)[C@@H](N)CC(=O)O)C(=O)O` [DPA] (H-Asp-Pro-Ala-OH) reads 0.4 ± 0.03 mM; that for `N[C@@H](CC(=O)O)C(=O)N[C@@H](Cc1ccc(O)cc1)C(=O)N1CCC[C@H]1C(=O)O` [DYP] (H-Asp-Tyr-Pro-OH; N-terminus and C-terminus assumed), 1.27 ± 0.17 mM; that for `N[C@@H](CC(=O)O)C(=O)N[C@@H](Cc1ccc(O)cc1)C(=O)O` [DY] (H-Asp-Tyr-OH; N-terminus and C-terminus assumed), 3.0 ± 0.8 mM.

For the compound `C[C@H](NC(=O)[C@@H](N)Cc1ccccc1)C(=O)N1CCC[C@H]1C(=O)O` [FAP] (H-Phe-Ala-Pro-OH; N-terminus and C-terminus assumed), the “LD50 mM ± S.E.M.” value is reported as 3.8 ± 0.23 mM. On to `N[C@@H](Cc1ccccc1)C(=O)N[C@@H](CC(=O)O)C(=O)N1CCC[C@H]1C(=O)O` [FDP] (H-Phe-Asp-Pro-OH; N-terminus and C-terminus assumed), for which the “LD50 mM ± S.E.M.” value is reported as 1.98 ± 0.6 mM. Consider `N[C@@H](Cc1ccccc1)C(=O)N[C@@H](CO)C(=O)N1CCC[C@H]1C(=O)O` [FSP] (H-Phe-Ser-Pro-OH; N-terminus and C-terminus assumed), for which the “LD50 mM ± S.E.M.” value amounted to 2.3 ± 0.13 mM. On the same count and under the same terms, the result for `C[C@H](NC(=O)[C@H](C)NC(=O)[C@@H]1CCCN1)C(=O)O` [PAA] (H-Pro-Ala-Ala-OH; N-terminus and C-terminus assumed) reads 2.4 ± 0.34 mM; that for `C[C@H](NC(=O)[C@@H]1CCCN1)C(=O)N1CCC[C@H]1C(=O)O` [PAP] (H-Pro-Ala-Pro-OH; N-terminus and C-terminus assumed), 3.17 ± 0.14 mM. Same read-out and setting: under `C[C@H](NC(=O)[C@@H]1CCCN1C(=O)[C@@H](CC(=O)O)NC(=O)[C@@H](N)Cc1ccc(O)cc1)C(=O)N1CCC[C@H]1C(=O)O` [Y(D)DPAP] (H-Y[dD]PAP-OH; N-terminus and C-terminus assumed) stands 1.2 ± 0.3 mM; under `N[C@@H](Cc1ccc(O)cc1)C(=O)N[C@H](CC(=O)O)C(=O)N1CCC[C@H]1C(=O)O` [Y(D)DP] (H-Tyr-[dD]-Pro-OH; N-terminus and C-terminus assumed), 0.28 ± 0.01 mM. As for `C[C@H](NC(=O)[C@@H](N)Cc1ccc(O)cc1)C(=O)N1CCC[C@H]1C(=O)O` [YAP] (H-Tyr-Ala-Pro-OH; N-terminus and C-terminus assumed), the “LD50 mM ± S.E.M.” value amounted to 2.3 ± 0.5 mM. On the same count and under the same terms, the result for `C[C@H](NC(=O)[C@H](CC(=O)O)NC(=O)[C@@H](N)Cc1ccc(O)cc1)C(=O)O` [YDA] (H-Tyr-Asp-Ala-OH; N-terminus and C-terminus assumed) reads 1.6 ± 0.13 mM.

Turning to `N[C@@H](Cc1ccc(O)cc1)C(=O)N[C@@H](CC(=O)O)C(=O)N[C@@H](Cc1ccccc1)C(=O)O` [YDF] (H-Tyr-Asp-Phe-OH; N-terminus and C-terminus assumed), the “LD50 mM ± S.E.M.” value is recorded as 0.97 ± 0.11 mM. On the same count and under the same terms, under `N[C@@H](Cc1ccc(O)cc1)C(=O)N[C@@H](CC(=O)O)C(=O)NCC(=O)O` [YDG] (H-Tyr-Asp-Gly-OH; N-terminus and C-terminus assumed) stands 0.95 ± 0.11 mM; under `N[C@@H](Cc1ccc(O)cc1)C(=O)N[C@@H](CC(=O)O)C(=O)N1CCC[C@H]1C(=O)O` [YDP] (H-Tyr-Asp-Pro-OH; N-terminus and C-terminus assumed), 2.3 ± 0.4 mM.

Consider `N[C@@H](Cc1ccc(O)cc1)C(=O)N[C@@H](CC(=O)O)C(=O)O` [YD] (H-Tyr-Asp-OH; N-terminus and C-terminus assumed), for which the “LD50 mM ± S.E.M.” value is on record as 1.24 ± 0.06 mM.

Take `N[C@@H](Cc1ccc(O)cc1)C(=O)N[C@@H](CO)C(=O)N[C@@H](Cc1ccccc1)C(=O)O` [YSF] (H-Tyr-Ser-Phe-OH; N-terminus and C-terminus assumed): the “LD50 mM ± S.E.M.” value turned out to be 1.08 ± 0.12 mM.

ADPAP [ADPAP]: the “LD50 mM ± S.E.M.” value worked out at 2.0 ± 0.36 mM. Still for that read-out and setting: the result for FDPAP [FDPAP] reads 0.37 ± 0.15 mM. With MPDYPPPPP [MPDYP5], the “LD50 mM ± S.E.M.” value is >3.0 mM.

Take YAPAP [YAPAP]: the “LD50 mM ± S.E.M.” value stood at 0.54 ± 0.13 mM. The same measure, in the same setting: the result for YDAAP [YDAAP] reads 1.0 ± 0.18 mM; that for YDFAP [YDFAP], 0.74 ± 0.13 mM. For YDLAP [YDLAP], the “LD50 mM ± S.E.M.” value is recorded as 0.6 ± 0.05 mM. Still for that read-out and setting: under YDPAA [YDPAA] stands 1.6 ± 0.13 mM. Still for that read-out and setting: the result for YDPAF [YDPAF] reads 0.33 ± 0.2 mM; that for YDPAL [YDPAL], 0.52 ± 0.03 mM. Same read-out and setting: the result for YDPAP [YDPAP, reference compound] reads 1.64 ± 0.03 mM; that for YDPFP [YDPFP], 1.7 ± 0.4 mM; that for YDPGP [YDPGP], 1.1 ± 0.18 mM. For YDPLP [YDPLP], the “LD50 mM ± S.E.M.” value amounted to 1.5 ± 0.04 mM. In the case of YEPAP [YEPAP], the “LD50 mM ± S.E.M.” value was found to be 0.35 ± 0.02 mM. Regarding YFPAP [YFPAP], the “LD50 mM ± S.E.M.” value was 0.64 ± 0.03 mM. The same measure, in the same setting: the result for YNPAP [YNPAP] reads 0.55 ± 0.03 mM. Still for that read-out and setting: under YSPAP [YSPAP] stands 1.4 ± 0.03 mM.

A further series concerns Aedes aegypti larvae. Kind of series: Effect of feeding TMOF-R analogues on Aedes aegypti larvae (LC50). The series is classed as in vivo. To be noted: fed in microtiter plates with yeast particles for 5 to 6 days; read-out: LC50 (mM ± S.E.M.). On the procedure:
TMOF analogues (5 to 8 amino acids in length, and polymers of these analogues) in which Arg was added at the C-terminus were evaluated to determine their effect on larval growth and development. A series of analogues were synthesized and tested by feeding them to mosquito larvae at concentrations of (0.5 to 5.0 mg/ml; Table 4). Concentrations of 2.0 to 0.065 mg/ml were used to feed mosquito larvae and calculate the Lethal Dose at 50% mortality (LD50; Table 4) of the TMOF analogues. […] In both cases larval death and trypsin biosynthesis inhibition was noted (Table 4 and 5). […] The advantage of using short analogues connected by Arg is that they can be digested in the gut into short TMOF analogues that can penetrate the midgut much faster than longer analogues.
Individual, newly hatched Aedes aegypti larvae were maintained in separate microtiter wells on a diet of autoclaved yeast (1 mg/ml). The diet was supplemented with TMOF analogues (Table 4). An identical number of larvae were maintained on yeast served as a control. […] All control groups survived and larval growth and development were normal. Larvae that were fed TMOF analogues had increased mortality, particularly when the larvae where fed the concentrations of the analogues higher than 2 mg/ml (Table 4).
Since larvae swallow only a small portion of the yeast particles that adsorbed the analogues it is assumed that approximately I to 20 ng are taken orally at the high concentrations. Using the various concentrations a lethal concentration that caused 50% mortality (LC50) for the mosquito larvae was calculated (Table 4). The results presented in Table 4 clearly indicate that the short TMOF-R analogues are very effective, especially the (DPAR)4 (SEQ ID NO. 61) polymer that is broken into 4 DPARs (SEQ ID NO. 60) in the gut.
As a reminder, the LC50 is the concentration that kills 50% of the test population. For `C[C@H](NC(=O)[C@@H]1CCCN1C(=O)[C@@H](N)CC(=O)O)C(=O)N[C@@H](CCCNC(=N)N)C(=O)O` [DPAR] (H-DPAR-OH), the LC50 was 0.46 ± 0.014 mM. With `N=C(N)NCCC[C@H](NC(=O)[C@@H]1CCCN1C(=O)[C@H](CC(=O)O)NC(=O)[C@@H](N)Cc1ccc(O)cc1)C(=O)O` [YDPR] (H-YDPR-OH; N-terminus and C-terminus assumed), the median lethal concentration (LC50) came out at 0.24 ± 0.026 mM. Same read-out and setting: the result for DPARDPARDPARDPAR [(DPAR)4] reads 0.048 ± 0.002 mM.

YDPAFR [YDPAFR]: the LC50 was 0.15 ± 0.023 mM.

Turning to YDPAPPPPPPR [YDPAP6R], the LC50 is > 71.6 mM.

The next series deals with trypsin biosynthesis. Kind of series: Effect of injected TMOF-R analogues on trypsin biosynthesis in Heliothis virescens (BApNA). The series is classed as in vivo. To be noted: 0.5 μg/injection, 2nd instar larvae, 24 hours after injection. Here is the method: Individual second instar larvae of H. virescens were injected with TMOF-R analogues (10 to 0.25 μg per larva) and maintained in separate plastic cups on artificial diet. Twenty-four hours after the injections 3 groups of larvae (3 per group) were assayed for trypsin biosynthesis using BApNA (trypsin specific substrate; Table 5).
As to DPARDPARDPARDPAR [(DPAR)4], the “Inhibition (% ± S.E.M.) of trypsin biosynthesis” value stood at 3 ± 0.3%.

The same series, now with this note: 1 μg/injection, 2nd instar larvae, 24 hours after injection.
For the compound `C[C@H](NC(=O)[C@@H]1CCCN1C(=O)[C@@H](N)CC(=O)O)C(=O)N[C@@H](CCCNC(=N)N)C(=O)O` [DPAR] (H-DPAR-OH), the “Inhibition (% ± S.E.M.) of trypsin biosynthesis” value is recorded as 17 ± 2%. Still for that read-out and setting: under DPARDPARDPARDPAR [(DPAR)4] stands 35 ± 7%.

The same series, now with this note: 10 μg/injection, 2nd instar larvae, 24 hours after injection.
As to `C[C@H](NC(=O)[C@@H]1CCCN1C(=O)[C@@H](N)CC(=O)O)C(=O)N[C@@H](CCCNC(=N)N)C(=O)O` [DPAR] (H-DPAR-OH), the “Inhibition (% ± S.E.M.) of trypsin biosynthesis” value is on record as 100%.

Take DPARDPARDPARDPAR [(DPAR)4]: the “Inhibition (% ± S.E.M.) of trypsin biosynthesis” value was determined as 58 ± 36%. YDPAFR [YDPAFR]: the “Inhibition (% ± S.E.M.) of trypsin biosynthesis” value is 0 ± 0%.

The values above are taken from patent US6566129B1, “Transformed cells useful for the control of pests” (University of Florida Research Foundation, Inc., priority 1999, dated 2003).
